Test results published in ChEMBL document CHEMBL1133410, “Synthesis of enantiomerically pure (+)- and (-)-18-methoxycoronaridine hydrochloride and their preliminary assessment as anti-addictive agents” (Bioorg Med Chem Lett, 2000).
Where a name gives a salt, the structure may show the parent alone.

molecular target: Mu-type opioid receptor (Bos taurus, UniProt P79350); assay: Binding affinity against Opioid receptor mu 1 of calf cortex using […] as radioligand
Sequence (P79350 whole entry): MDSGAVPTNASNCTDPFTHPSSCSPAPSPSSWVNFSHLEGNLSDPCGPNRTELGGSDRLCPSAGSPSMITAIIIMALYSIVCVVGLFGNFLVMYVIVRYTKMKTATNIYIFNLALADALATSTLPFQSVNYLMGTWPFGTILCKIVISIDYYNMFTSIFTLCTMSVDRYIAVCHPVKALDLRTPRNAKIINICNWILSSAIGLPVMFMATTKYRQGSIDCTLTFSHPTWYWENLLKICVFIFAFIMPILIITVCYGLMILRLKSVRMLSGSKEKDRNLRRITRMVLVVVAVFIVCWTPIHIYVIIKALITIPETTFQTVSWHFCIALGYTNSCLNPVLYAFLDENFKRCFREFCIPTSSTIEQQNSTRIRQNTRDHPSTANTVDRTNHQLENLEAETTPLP

Point of comparison: `COCCC1CC2CN3CCc4c([nH]c5ccccc45)C(C(=O)OC)(C2)C13` (stereo in doubt; (+)) [ZOLUNICANT HYDROCHLORIDE], Ki 740 nM. Against it:
- COCCC1CC2CN3CCc4c([nH]c5ccccc45)C(C(=O)OC)(C2)C13 (racemic) [ZOLUNICANT HYDROCHLORIDE] — within 1.5-fold, 1100 nM
- COCCC1CC2CN3CCc4c([nH]c5ccccc45)C(C(=O)OC)(C2)C13 (stereo in doubt; (-)) [ZOLUNICANT HYDROCHLORIDE] — 18-fold higher, 13000 nM
